Reference: PubChem BioAssay (NCI)
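48-hour exposure; five concentrations; linearly interpolated endpoints. Here, GI50 denotes the concentration required for 50% inhibition of growth. TGI: total growth inhibition.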

Assays:
Experiment in all cases: NCI tumour cell line growth inhibition, 48 h
[1] = system: 786-0 renal
[2] = system: A498 renal
[3] = system: A549 NSCLC
[4] = system: ACHN renal
[5] = system: BT-549 breast
[6] = system: CAKI-1 renal
[7] = system: CCRF-CEM leukemia
[8] = system: COLO 205 colon
[9] = system: DU-145 prostate
[10] = system: EKVX NSCLC
[11] = system: HCC-2998 colon
[12] = system: HCT-116 colon
[13] = system: HCT-15 colon
[14] = system: HL-60(TB) leukemia
[15] = system: HOP-62 NSCLC
[16] = system: HOP-92 NSCLC
[17] = system: HS 578T breast
[18] = system: HT29 colon
[19] = system: IGROV1 ovarian
[20] = system: K-562 leukemia
[21] = system: KM12 colon
[22] = system: LOX IMVI melanoma
[23] = system: M14 melanoma
[24] = system: MALME-3M melanoma
[25] = system: MCF7 breast
[26] = system: MDA-MB-231 breast
[27] = system: MOLT-4 leukemia
[28] = system: NCI-H226 lung
[29] = system: NCI-H23 lung

With O=C(N/N=C/c1ccco1)c1[nH]c2ccc(Br)cc2c1-c1ccccc1 the GI50 [1] was 411 nM, the TGI [1] was 12600 nM and the GI50 [2] was 8760 nM. It also gave a TGI [2] of 25400 nM, a GI50 [3] of 191 nM and a TGI [3] of 14300 nM. It also gave a GI50 [4] of 303 nM, a TGI [4] of 14700 nM and a GI50 [5] of 220 nM. It also gave a TGI [5] of 1190 nM, a GI50 [6] of 251 nM and a TGI [6] of 16500 nM. For the same compound, the GI50 [7] was 238 nM, the TGI [7] was 27100 nM and the GI50 [8] was 226 nM. It also gave a TGI [8] of 695 nM, a GI50 [9] of 309 nM and a TGI [9] of 12000 nM. For the same compound, the GI50 [10] was 1300 nM, the TGI [10] was 27300 nM and the GI50 [11] was 240 nM. For the same compound, the TGI [11] was 9410 nM, the GI50 [12] was 106 nM and the TGI [12] was 10700 nM. For the same compound, the GI50 [13] was 85.9 nM, the TGI [13] was 11800 nM and the GI50 [14] was 135 nM. It also gave a TGI [14] of 503 nM, a GI50 [15] of 326 nM and a TGI [15] of 15400 nM. For the same compound, the GI50 [16] was 763 nM, the TGI [16] was 13200 nM and the GI50 [17] was 234 nM. It also gave a TGI [17] of 29500 nM, a GI50 [18] of 143 nM and a TGI [18] of 1230 nM. It also gave a GI50 [19] of 212 nM, a TGI [19] of 12800 nM and a GI50 [20] of 48.5 nM. For the same compound, the TGI [20] was 11900 nM, the GI50 [21] was 281 nM and the TGI [21] was 12700 nM. The GI50 [22] was 89.9 nM, the TGI [22] was 11700 nM and the GI50 [23] was 165 nM. The TGI [23] was 21900 nM, the GI50 [24] was 211 nM and the TGI [24] was 21300 nM. For the same compound, the GI50 [25] was 67.3 nM, the TGI [25] was 11100 nM and the GI50 [26] was 292 nM. The TGI [26] was 2970 nM, the GI50 [27] was 265 nM and the TGI [27] was 11700 nM. It also gave a GI50 [28] of 327 nM, a TGI [28] of 10400 nM and a GI50 [29] of 403 nM.
